Assay results taken from patent publication US20070031504A1, “Microdevices comprising nanocapsules for controlled delivery of drugs and method of manufacturing same” (MIV Therapeutics Inc., priority 2005, published 2007).

Test: Solubility of paclitaxel in the hydrophilic liquid core solvents
Settings: solvents such as DMSO and DENA

concentration at which the drug may be dissolved in liquid core: 10-60 weight percent
SMILES: CC(=O)O[C@H]1C(=O)[C@@]2(C)[C@H]([C@H](OC(=O)c3ccccc3)[C@]3(O)C[C@H](OC(=O)[C@H](O)[C@@H](NC(=O)c4ccccc4)c4ccccc4)C(C)=C1C3(C)C)[C@]1(OC(C)=O)CO[C@@H]1C[C@@H]2O [paclitaxel]
